# Article PMC6271477, “Effects of Single Amino Acid Substitution on the Biophysical Properties and Biological Activities of an Amphipathic α-Helical Antibacterial Peptide Against Gram-Negative Bacteria” (Molecules, 2014)
# Read-outs that look alike come from different tables or passages of the source.
# Experiments:
# [1] = Tryptophan fluorescence, binding to lipid vesicles; conditions: for Tryptophan fluorescence emission maximum: excitation 280 nm
# Procedure: Upon peptide diffusion into the cytoplasmic membrane, evidence of selective interaction between peptides with bacterial versus mammalian cytoplasmic membrane was illustrated by the binding events of the peptides to anionic or zwitterionic lipid vesicles. […] Lipid/peptide (L/P) ratios were maintained high enough at low peptide concentration (2 μM) in order to mimic the initial steps of peptide-membrane binding. The spectra were recorded as shown in Supplementary Figure S1. […] The significant blue shifts of Δλmax (17 to 23 nm) for all peptides upon exposure to PC/PG vesicles indicated a membrane partition state of Trp in negatively charged vesicles containing 30% anionic lipids (PG).
# Unilamellar vesicles were prepared by a standard procedure with either PC/PG (7:3, w/w) or PC/cholesterol (8:1, w/w) as described previously. Briefly, the desired mixtures of lipids were dissolved in a chloroform/methanol mixture (2:1, v/v), dried under nitrogen and then lyophilized for 24 h to remove traces of organic solvent. Dry lipid films were suspended in 10 mM HEPES buffer containing 150 mM NaCl (pH 7.4) by vortex mixing. After five freeze-thawing cycles, the suspension was extruded 15 times through double polycarbonate membranes with 0.1 μm diameter pores on an Avanti mini-extruder apparatus. The lipid concentration was determined by phosphorus analysis as previously reported.
# Fluorescence emission spectra of peptide Trp residues were monitored by a Shimadzu RF-5301 spectrofluorometer. The excitation of wavelength was set as 280 nm and the emission spectra of each peptide, with or without lipid vesicles, were recorded between 300 and 450 nm. Thus three curves were recorded for each peptide, in HEPES buffer or with either PC/PG vesicles or PC/cholesterol vesicles. The blue shift of Trp residues in vesicles were referred to in buffer condition. The final concentrations of peptide and lipid were 2 μM and 100 μM (1/50), respectively.
# E. coli ATCC25922 = type: cell-based
# Procedure: (§1) Minimal inhibitory concentrations (MIC) were determined using a broth dilution method. Briefly, bacteria were grown overnight at 37 °C in Mueller–Hinton (MH) Broth, diluted in the same medium and transferred into 96-well microtiter plates (90 μL/well). Peptides were serially diluted using 0.2% bovine serum albumin containing 0.01% acetic acid and added to the microtiter plates in a volume of 10 μL per well to give a final concentration of 5 × 10^5 CFU/mL. MICs were defined as the lowest peptide concentration that inhibited bacterial growth after incubation for 24 h at 37 °C.
# P. aeruginosa ATCC27853 = type: cell-based
# Procedure: as §1
# P. aeruginosa H188 = type: cell-based
# Procedure: as §1
# E. coli Clinical Isolate = type: cell-based
# Procedure: as §1
# [2] = Analytical RP-HPLC retention time as a measure of peptide hydrophobicity; type: physicochemical; conditions: RP-HPLC at 25 °C, Zorbax 300 SB-C8 column, linear AB gradient, A 0.1% aqueous TFA, B 0.1% TFA in acetonitrile, 1 mL/min, detection at 210 nm
# Procedure: Among substitutions, the retention times ranged from 32.2 min (peptide V16K) to 40.4 min (peptide V16L), which reflect the pure effects of single amino acid substitutions. Thus, the retention times of peptides reflect the relative hydrophobicity of side chains. Consistent with previous studies, the hydrophobicity of peptide analogs was generally in the following order: Lys < Gly < Ser < Ala < Val < Leu. Glu-substituted peptide was an exception, as it contains a negatively-charged side chain and this should decrease the hydrophobicity of the peptide dramatically.
# Peptides were analyzed on a Shimadzu LC-20A HPLC using a Zorbax 300 SB-C8 column (150 ° 4.6 mm i.d., 5 μm particle size, 300 Å pore size) from Agilent Technologies using a linear AB gradient and a flow rate of 1 mL/min, where solvents A and B were as described above. Absorbance signals of peptides were detected at 210 nm.
# [3] = CD spectroscopy, helicity in benign buffer and in 50% TFE; type: physicochemical; conditions: for [θ]222, mean residue molar ellipticity, benign / [θ]222, mean residue molar ellipticity, 50% TFE: CD at 222 nm, peptide 75 μM; for [θ]222, mean residue molar ellipticity, benign / [θ]222, mean residue molar ellipticity, 50% TFE / % helix, 50% TFE: 25 °C; for [θ]222, mean residue molar ellipticity, benign: KP buffer (100 mM KCl, 50 mM K2HPO4/KH2PO4, pH 7.0); for [θ]222, mean residue molar ellipticity, 50% TFE / % helix, 50% TFE: KP buffer diluted 1:1 (v/v) with TFE; for % helix, 50% TFE / % helix, benign: relative to the molar ellipticity of peptide V16E in 50% TFE; for % helix, benign: KP buffer pH 7.0, 25 °C
# Procedure: The secondary structures of peptides were determined in benign buffer and in a hydrophobic environment (50% trifluoroethanol, TFE) to mimic the hydrophobic environment of the membrane. […] The principle of side chain interaction at the i to i + 3 and i to i + 4 positions has been used to promote α-helix stability, for example, the incorporation of Lys and Glu residues to stabilize electrostatic attractions. Thus, the helicity of peptide V16E in the presence of 50% TFE that presented the greatest value among all analogs should rely on the contribution of the electrostatic attraction of the side chain of K13 and E16, which stabilizes the helix. The relative helicity is 100% for peptide V16E in 50% TFE, showing the importance of the salt bridges of K13 and E16 to stabilize the helical structure. In general, subtle side-chain alterations by single amino acid substitutions made no significant changes on secondary structures both in aqueous and in hydrophobic environments (Table 2).
# Circular dichroism spectra were measured with a 0.02 cm path length quartz cuvette on a Jasco J-810 spectropolarimeter (Jasco, Tokyo, Japan) at 25 °C. Data were collected from 250 to 190 nm at a sensitivity of 100 millidegrees, response time of 1 s, bandwidth of 1.0 nm and a scan speed of 100 nm/min. Peptides were measured at a concentration of 75 μM in a benign buffer (50 mM KH2PO4/K2HPO4, 100 mM KCl, pH 7) or the benign buffer mixed with 50% 2,2,2-trifluoroethanol (TFE). The mean residue molar ellipticities were calculated using the equation [θ] = θ/10lcMn, where θ is the ellipticity in millidegrees, l is the optical path length of the cuvette in centimeters, cM is the peptide concentration in mole/liter and n is the number of residues in the peptide.
# E. coli DH5α = test: MIC by broth dilution; type: cell-based; conditions: MH broth, 5 × 10^5 CFU/mL, 24 h at 37 °C
# Procedure: as §1
# [4] = PC/PG (7:3, w/w) vesicles versus HEPES buffer, lipid:peptide 50:1, peptide 2 μM
# [5] = PC/PG (7:3, w/w) vesicles, lipid and peptide in a molar ratio of 50:1, peptide 2 μM, lipid 100 μM
# [6] = PC/cholesterol (8:1, w/w) vesicles versus HEPES buffer, peptide 2 μM, lipid 100 μM
# [7] = PC/cholesterol (8:1, w/w) vesicles, peptide 2 μM, lipid 100 μM
Molecule,"Blue shift in emission maximum [1, 4] [nm]","Tryptophan fluorescence emission maximum [1, 5] [nm]","Blue shift in emission maximum [1, 6] [nm]","Tryptophan fluorescence emission maximum [1, 7] [nm]","MIC (E. coli ATCC25922; E. coli ATCC25922, MH broth, 5 × 10^5 CFU/mL, 24 h at 37 °C) [µg/mL]","MIC (P. aeruginosa ATCC27853; P. aeruginosa ATCC27853, MH broth, 5 × 10^5 CFU/mL, 24 h at 37 °C) [µg/mL]","MIC (P. aeruginosa H188; P. aeruginosa H188, MH broth, 5 × 10^5 CFU/mL, 24 h at 37 °C) [µg/mL]","MIC (E. coli Clinical Isolate; E. coli Clinical Isolate, MH broth, 5 × 10^5 CFU/mL, 24 h at 37 °C) [µg/mL]","tR, retention time during RP-HPLC (relative hydrophobicity) [2] [min]","[θ]222, mean residue molar ellipticity, benign [3]","[θ]222, mean residue molar ellipticity, 50% TFE [3]","% helix, 50% TFE [3] [%]","% helix, benign [3] [%]",MIC (E. coli DH5α) [µg/mL],"MIC (E. coli ATCC25922; ATCC25922, 24 h) [µg/mL]","MIC (P. aeruginosa ATCC27853; ATCC27853, 24 h) [µg/mL]","MIC (P. aeruginosa H188; H188, 24 h) [µg/mL]","MIC (E. coli Clinical Isolate; Clinical Isolate, 24 h) [µg/mL]"
CC[C@H](C)[C@H](NC(=O)[C@H](C)NC(=O)[C@H](CCCCN)NC(=O)[C@H](CC(C)C)NC(=O)[C@H](C)NC(=O)[C@@H](NC(=O)[C@H](Cc1cnc[nH]1)NC(=O)[C@H](CC(C)C)NC(=O)[C@@H](NC(=O)[C@@H](NC(=O)[C@H](CCCCN)NC(=O)[C@H](CCCCN)NC(=O)[C@H](C)NC(=O)[C@H](CO)NC(=O)[C@H](CCCCN)NC(=O)[C@H](Cc1ccccc1)NC(=O)[C@@H](NC(=O)[C@H](CCCCN)NC(=O)[C@H](CC(C)C)NC(=O)[C@H](Cc1ccccc1)NC(=O)[C@H](CO)NC(=O)[C@H](CCCCN)NC(=O)[C@H](Cc1c[nH]c2ccccc12)NC(=O)[C@H](CCCCN)NC(C)=O)[C@@H](C)O)[C@@H](C)O)C(C)C)[C@@H](C)O)C(=O)N[C@@H](CO)C(=O)N[C@@H](CO)C(N)=O [P],22,328,1,349,1,4,4,1,38.2,"−2,592 degree·cm^2·dmol^−^1","−29,726 degree·cm^2·dmol^−^1",98.9,8.6,2,–,–,–,–
Ac-KWKSFLKTFKSAKKTKLHTALKAISS-NH2 [Peptide V16K],21,329,1,349,–,–,–,–,32.2,"−1,990 degree·cm^2·dmol^−^1","−29,313 degree·cm^2·dmol^−^1",97.5,6.6,16,32,32,16,8
